Structures are written as SMILES. Counter-ions that a name gives are not always drawn. Like-named read-outs stand apart in the source and are kept apart here.

Series [1] deals with T1, Intestinal 5-HT3 receptor (Cavia porcellus, UniProt O70212).
T1 sequence (O70212 24-490 limits assumed): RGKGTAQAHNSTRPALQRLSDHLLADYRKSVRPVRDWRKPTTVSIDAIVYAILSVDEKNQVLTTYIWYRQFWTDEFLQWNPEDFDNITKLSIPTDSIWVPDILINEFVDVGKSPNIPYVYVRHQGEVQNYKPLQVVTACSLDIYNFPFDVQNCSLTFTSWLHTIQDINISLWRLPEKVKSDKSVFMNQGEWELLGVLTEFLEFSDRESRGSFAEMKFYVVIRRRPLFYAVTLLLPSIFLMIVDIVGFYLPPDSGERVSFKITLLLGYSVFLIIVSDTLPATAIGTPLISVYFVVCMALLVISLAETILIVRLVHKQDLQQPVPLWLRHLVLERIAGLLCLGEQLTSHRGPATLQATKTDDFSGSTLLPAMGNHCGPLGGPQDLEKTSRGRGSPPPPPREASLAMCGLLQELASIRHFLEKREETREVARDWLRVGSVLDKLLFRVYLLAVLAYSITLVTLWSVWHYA
Description: Intestinal 5-HT3 receptor antagonism (isolated distal colon, 2-methylserotonin-induced contraction). Format: cell-based, Hartley guinea pigs. The conditions noted are these: for Kb: isolated distal colon, 2-methylserotonin contraction.
Description: The test was conducted following the method of Miyata, et al. (The Journal of Pharmacology and Experimental Therapeutics Vol.259, No:1, 15 (1991)).
Male Hartley guinea pigs with a body weight of 300-400 g were bled to death, the distal colon (3-10 cm from the anus) was isolated and suspended in a Magnus tube filled with Krebs solution aerated with a mixed gas (95% O2, 5% CO2), and subjected to a tensile load of 1 g. After constant contraction by cumulative addition of 2-methylserotonin (10^-6 -10^-4 M) was obtained, the test agent was added and the pA2 value of the test agent was calculated based on its inhibiting action on the initial value.
The value (pA2 value) is defined as the negative logarithm (-logM) of the molar concentration (M) of the antagonist required to reduce the effect of serotonin at a concentration of 2 times the 2-methylserotonin concentration (EC50) necessary to induce half of the maximum contraction reaction, to an effect induced by an EC50 of serotonin.

Series [2] deals with T2, 5-HT3 receptors in the heart (Rattus norvegicus, UniProt P35563).
T2 construct: from tissue; host or cells: living anesthetized male SD rats (in vivo)
T2 sequence (P35563 24-483): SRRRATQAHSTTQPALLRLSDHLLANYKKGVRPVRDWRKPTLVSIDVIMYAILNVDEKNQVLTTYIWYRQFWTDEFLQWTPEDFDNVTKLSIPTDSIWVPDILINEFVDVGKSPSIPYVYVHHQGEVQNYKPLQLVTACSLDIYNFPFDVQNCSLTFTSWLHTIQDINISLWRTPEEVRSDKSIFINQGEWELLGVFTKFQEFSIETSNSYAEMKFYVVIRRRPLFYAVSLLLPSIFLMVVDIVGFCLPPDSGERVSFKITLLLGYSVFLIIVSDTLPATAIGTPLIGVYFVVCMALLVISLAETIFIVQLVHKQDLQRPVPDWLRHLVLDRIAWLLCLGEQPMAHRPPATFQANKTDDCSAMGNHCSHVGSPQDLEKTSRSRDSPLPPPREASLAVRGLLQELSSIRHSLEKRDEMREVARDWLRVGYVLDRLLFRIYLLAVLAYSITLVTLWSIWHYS
Description: Antagonism against Von Bezold-Jarisch reflex (BJ reflex). Format: in vivo, SD rats. The conditions noted are these: 5 min before serotonin 30 μg/kg, read-out: ID50 (the source's name). On the procedure:
Antagonism against Von Bezold-Jarisch reflex (BJ reflex):
The pulse was determined by measuring the electrocardiogram R waves (secondary induction) with an instantaneous pulse rate meter.

Series [3] concerns 5-HT3 receptors in the upper intestine. Description: Antagonism against 5-HT-induced intestinal secretion (jejunal loop). Format: in vivo, wister rats. The settings on record: for net fluid transfer in jejunal loop: caudal vein, 15 min before serotonin. On the procedure: Antagonism against 5-HT-induced intestinal secretion:
Male wister rats (8-11 weeks old) were anesthetized with urethane, and the abdomen was opened a polyethylene catheter was placed in the jejunum 5 cm distal to the duodenojejunal flexure and fixed by ligation. The second ligation was made at a distal point of 20 cm to create a jejunal loop. Two ml of physiological saline was injected into this loop and initiated continuous injection of physiological saline (0.1 ml/min) or 5-HT (3 μg/0.1 ml/kg/min, serotonin treated group) into the mesenteric artery through the mesenteric artery gastric branch, and after 30 minutes the jejunal loop was isolated, the residual fluid amount was measured, and the net fluid transfer per gram of tissue weight was calculated. The net fluid transfer was expressed as the fluid amount (weight) change in 30 minutes per jejunal tissue weight (g/30 min/g). A "+" was assigned when the fluid amount increased compared with 2 ml of physiological saline injected into the loop, and "-" when it decreased

Series [4] deals with restrained stress-induced diarrhea. Description: Inhibiting effect on restrained stress-induced diarrhea (oral administration). The series is classed as in vivo, Wistar rats. The settings on record: 1 hour before stress. On the procedure: Inhibiting effect on restrained stress-induced diarrhea (oral administration): This test was conducted following the method of Miyata, et al. […] Nine-week-old male Wistar rats fasted overnight were placed in a stress cage and their feces produced in 5 hours were observed. Of 15 rats, 14 developed diarrhea. The inhibiting effect on diarrhea was measured by oral administration of the test compounds one hour prior to placement in the stress cage.

The subject of series [5] is restraint stress-induced diarrhea. Description: Inhibiting effect on restraint stress-induced diarrhea (intraabdominal administration). Format: in vivo, Wistar rats. The settings on record: 30 μg/kg, 30 min before stress. On the procedure: Inhibiting effect on restraint stress-induced diarrhea (intraabdominal administration): This test was conducted in the same manner as Test 3. Nine- to ten-week-oldmale Wistar rats fasted overnight were placed in a stress case and their feces produced in 5 hours were observed. Of 15 rats, 14 developed diarrhea. The inhibiting effect on diarrhea was measured by intraabdominal administration of a test compound 30 minutes prior to placement in the stress cage.

Series [6] concerns duodenal extension reflex. The experiment in a line: Inhibiting effect on duodenal extension reflex. Format: in vivo, Wistar rats. The conditions noted are these: for Inhibition rate, 5-min value / Inhibition rate, 15-min value / Inhibition rate, 25-min value: intravenous. The text has this:
Inhibiting effect on duodenal extension reflex: Unfasted male Wistar rats with a body weight of 300-390 g were opened at the abdomen under urethane anesthesia, and ligated at 2 locations, the gastric pyloric region and 3-4 cm directly under it, to create a duodenal loop. […] The beaker was raised at once to create a internal loop pressure of 75 cm H2, and the depressor reflex and effect of the test agent administration were observed. […] The test agent was then administrated intravenously, and at 5, 15 and 25 minutes after administration an extension stimulus was applied, the depressor reflex was observed, and the differences were expressed as percentages with respect to the initial value, to give the inhibition rates.

Series [7] concerns cisplatin-induced vomiting. The experiment in a line: Inhibiting effect on cisplatin-induced vomiting. The series is classed as in vivo, ferrets. The settings on record: oral, 1 hour before cisplatin; for No. of retching / No. of vomiting animals/No. of animals used / No. of vomitings: 6 hours. An excerpt:
Inhibiting effect on cisplatin-induced vomiting:
Vomiting was induced in ferrets by administration of cisplatin. The inhibiting effect on this vomiting was observed. […] The test agents were orally administered one hour prior to cisplatin administration. […]

The test system of the next series is gastric emptying. Description: Accelerating effect on gastric emptying (cisplatin-reduced). The series is classed as in vivo, SD rats. The conditions noted are these: for Gastric evacuation: oral, 30 min before cisplatin 10 mg/kg. On the procedure:
Accelerating effect on gastric emptying
Seven-week-old male SD rats which had been fasted for 24 hours were used. The effect on gastric emptying was studied in rats with reduced gastric emptying due to cisplatin. The rats were intragastrically administered the test feed (1.5% aqueous CMC solution containing 50 mg/100 ml phenol red) at 1.5 ml/rat, and after 15 minutes the stomachs were dissected, the residual amount of phenol red in the stomach was measured, in order to determine the gastric emptying in normal animals. A cisplatin-induced reduction in gastric emptying was measured by intraabdominal administration of cisplatin (10 mg/kg) 30 minutes prior to supplying the test feed. The test compound was also administered orally 30 minutes prior to the cisplatin administration to study the accelerating effect of the test compound on gastric emptying.

A short description of a further series: Acute toxicity (oral). Format: in vivo. The conditions noted are these: rats; for LD50: rat, in vivo; for cases of death: 1000 mg/kg.
[8] abbreviates: read-out: M (molar concentration of antagonist).

For the molecule `CC1CN(C(=O)C2CCc3[nH]cnc3C2)c2ccccc21` (stereo not shown) [A, reference compound], the Kb in series [1] (read-out: pA2 (converted)) is over 10000 pM.
For `Cl.O=C(C1CCc2nc[nH]c2C1)N1CC(c2ccccc2)c2ccccc21` (stereo not shown) [Compound 2, 5-[(3-phenylindolin-1-yl)carbonyl]-4,5,6,7-tetrahydrobenzimidazole hydrochloride], in series [1] (read-out: pA2 (converted)), the Kb is 1000 pM. In addition, in series [2] (iv), the ED50 worked out at 0.0003 mg/kg.
In general, LD50 refers to the dose expected to kill half of the subjects tested. A lower LD50 goes with greater toxicity. `Cl.O=C(C1CCc2nc[nH]c2C1)N1CC(c2ccccc2)c2ccccc21` (stereo not shown) [Compound 4, 5-[(3-phenylindolin-1-yl)carbonyl]-4,5,6,7-tetrahydrobenzimidazole hydrochloride]: the “activity in the colon compared to YM-060 and YM-114” value in series [1] (colon, relative to YM-060 and YM-114) is on record as “about 15 -fold”. For the same molecule, the Kb in [1] (setting [8]) is 300 pM. The Kb in series [1] (read-out: pA2 (converted)) is 251 pM. For the same molecule, in series [3] (0.1 μg/kg), the “net fluid transfer in jejunal loop” value is given as -0.50 ± 0.07 g/30 min/g tissue weight. The “net fluid transfer in jejunal loop” value in [3] (1.0 μg/kg) was -0.80 ± 0.09 g/30 min/g tissue weight. Moreover, in series [4] (30 μg/kg), the Inhibition rate is 70% and the “No. of animals with diarrhea/No. of animals used” value was 3/10. For the same molecule, in [5], the Inhibition rate is given as 90% and the “No. of animals with diarrhea/No. of animals used” value is recorded as 1/10. In series [6] (1 μg/kg), the “Inhibition rate, 5-min value” was found to be 21.7%; the “Inhibition rate, 15-min value” is reported as 6.7%; the “Inhibition rate, 25-min value” is recorded as 20.2%. Also, in [6] (10 μg/kg), the “Inhibition rate, 5-min value” is given as 16.3%; the “Inhibition rate, 15-min value” stood at 17.8%; the “Inhibition rate, 25-min value” amounted to 21.1%. Moreover, the “inhibition of intestinal sensitivity to dilatation / alleviation of abdominal pain (in words)” value in series [6] (rat, in vivo) was “inhibited intestinal sensitivity to dilatation stimulation more strongly than YM-060”. Besides, the ED50 in [2] (iv) worked out at 0.00039 µmol/kg. In series [7] (0.3 μg), the “Latency* (time to initial retching)” value is listed as 114.0 min, the “Latency** (time to initial vomiting)” value came to 114.0 min, the No. of retching was found to be 139.0 and the “No. of vomiting animals/No. of animals used” value is 2/2. In addition, the No. of vomitings in series [7] (0.3 μg) worked out at 7.0. In series [7] (1.0 μg), the “Latency* (time to initial retching)” value is on record as over 289.7 min, the “Latency** (time to initial vomiting)” value was found to be 293.0 min, the No. of retching was determined as 14.7 and the “No. of vomiting animals/No. of animals used” value is reported as 1/3. For the same molecule, in series [7] (1.0 μg), the No. of vomitings was 1.0. Moreover, in the series on gastric emptying (0.3 μg/kg), the “inhibition of cisplatin-induced gastric emptying reduction (in words)” value is “inhibited similar cisplatin-induced gastric emptying reduction” and the Gastric evacuation is listed as 73.3%. Besides, the “amount needed relative to YM-060 for similar inhibition of gastric emptying reduction” value in the series with gastric emptying (0.3 μg/kg, relative to the amount of YM-060) is given as “less than 1/3”. Further, in the series on gastric emptying (1.0 μg/kg), the “gastric emptying acceleration (in words)” value is “gastric emptying was further accelerated” and the Gastric evacuation is recorded as 82.4%. In the series “Acute toxicity (oral)”, the LD50 was at least 1000 mg/kg and the cases of death result was “no cases of death”.
Turning to `Cl.O=C(C1CCc2nc[nH]c2C1)N1CC(c2cccc(O)c2)c2ccccc21` (stereo not shown) [Compound 6, 5-[(3-(3-hydroxyphenyl)indolin-1-yl)carbonyl]-4,5,6,7-tetrahydrobenzimidazole hydrochloride], the Kb in series [1] (read-out: pA2 (converted)) was 100 pM. Besides, in series [4] (100 μg/kg), the Inhibition rate was found to be 100% and the “No. of animals with diarrhea/No. of animals used” value is recorded as 0/5. Also, the ED50 in [2] (iv) turned out to be 0.00015 mg/kg. Also, in the series “Acute toxicity (oral)”, the LD50 was at least 1000 mg/kg and the cases of death entry was “no cases of death”.
Regarding `Cl.O=C(C1CCc2nc[nH]c2C1)N1CC(c2ccc(O)cc2)c2ccccc21` (stereo not shown) [Compound 8, 5-[(3-(4-hydroxyphenyl)indolin-1-yl)carbonyl]-4,5,6,7-tetrahydrobenzimidazole hydrochloride], the Kb in series [1] (read-out: pA2 (converted)) was 100 pM. Also, in series [4] (30 μg/kg), the Inhibition rate came out at 70% and the “No. of animals with diarrhea/No. of animals used” value is recorded as 2/10. For the same molecule, in series [2] (iv), the ED50 was 0.00013 mg/kg. In “Acute toxicity (oral)”, the LD50 was at least 1000 mg/kg and the cases of death entry is reported as “no cases of death”.
With `O=C(C1CCc2nc[nH]c2C1)N1CC(c2ccccc2O)c2ccccc21` (stereo not shown) [Compound 10, 5-[(3-(2-hydroxyphenyl)indolin-1-yl)carbonyl]-4,5,6,7-tetrahydrobenzimidazole hydrochloride], the figures for the Kb in series [1] (setting [8]) and in series [1] (read-out: pA2 (converted)) were 50 pM and 126 pM, respectively.
Regarding `COc1cccc(C2CN(C(=O)C3CCc4nc[nH]c4C3)c3ccccc32)c1` (stereo not shown) [Compound 12, 5-[(3-(3-methoxyphenyl)indolin-1-yl)carbonyl]-4,5,6,7-tetrahydrobenzimidazole hydrochloride], the Kb is 130 pM in [1] (setting [8]) and 100 pM in [1] (read-out: pA2 (converted)).
In the case of `CN1[C@@H]2CC[C@H]1C[C@@H](OC(=O)c1c[nH]c3ccccc13)C2` [Tropisetron, endo-8-methyl-8-azabicyclo[3,2,1]octa-3-yl indol-3-ylcarboxylate], in series [6] (10 μg/kg), the “Inhibition rate, 5-min value” was found to be 42.7%; the “Inhibition rate, 15-min value” is reported as 44.1%; the “Inhibition rate, 25-min value” was determined as 30.6%.
Turning to `O=C([C@@H]1CCc2[nH]cnc2C1)N1CCc2ccccc21` [YM-114, reference compound], the Kb in series [1] (read-out: pA2 (converted)) is 3980 pM. Moreover, in series [4] (30 μg/kg), the Inhibition rate came out at 30% and the “No. of animals with diarrhea/No. of animals used” value was 7/10. Also, in series [2] (intravenous), the ED50 turned out to be 0.00015 mg/kg.
In the case of `NCCc1c[nH]c2ccc(O)cc12` [serotonin, 5-hydroxytryptamine], the “acceleration in intestinal secretion” value in series [3] (serotonin administration versus control) turned out to be 0.19 g/30 min/g tissue weight.

Source of the values: patent US5677326A, “Indoline compound and 5-HT3 receptor antagonist containing the same as active ingredient” (Tokyo Tanabe Company Limited, priority 1993, dated 1997).
